Source: US20240174697A1, “PH-ACTIVABLE FLUORESCENT PROBES FOR TARGETING CELL ORGANELLES” (Purdue Research Foundation, priority 2021, published 2024)
Entries after “also recorded” stand apart in the source; their conditions may differ.

Experiments:
[1] = Absorption and fluorescence spectra at different pH solutions, pKa; format: physicochemical; details: in a mixture of DMSO: acetonitrile
[2] = Solubility in aqueous medium / pH solutions; format: physicochemical
[3] = tested on: primary mouse microglia; experiment: Flow cytometry analysis of probe fluorescence in live cells; format: cell-based; details: co-staining with MitoLite dye
Description: FIGS. 3A-3E. […] Modal corresponds to a percentage of the maximum count. […] US Ctrl is unstained control. Gating strategy and flow plots with commercial dyes in supporting information.
A detailed protocol for the isolation and culture of primary microglia from adult mouse brains is previously described^2. Briefly, CD11^+ primary microglia were isolated from adult C57BL/6 mice aged 5-7 months of age (both male and female sexes) and cultured as follows. Mice were euthanized with CO2 following the PACUC guidelines, perfused brains were removed and cut into small pieces before homogenizing them in DPBS++with 0.4% DNase-I on the tissue dissociator at 37° C. After filtering the cells through a 70 μm filter, myelin was removed two times, first using gradient centrifugation with Percoll PLUS reagent followed by the use of myelin removal beads on the magnetic column separators. After myelin removal, CD11^+ cells were selected from the single cell suspension using the CD11^+ beads as per the manufacturer's instructions. […]
Primary mouse microglia were treated with 1, 5, or 10 μM fluorescent probes for 2 hours for the cells to uptake the probe. […] Around 10-20 thousand cells were gated from the live cells in order to analyze the cellular fluorescence signal corresponding to the LysoShine/Lysotracker or Mitoshine/MitoLite probes.

[4] = tested on: BV2 microglia; experiment: MTT assay, metabolic activity of BV2 microglia; format: cell-based, mouse; details: 24 hours
Protocol: (§1) The dried fluorescent probes powders were resuspended in cell grade DMSO to prepare 5 mM stock solutions. This stock was used to make a 1, 5, or 10 μM dilution of the probe in cell culture media. The diluted probe solutions were filtered through 0.22 µm filters before adding to the cells.
Murine microglial BV2 cells (10,000 cells/well) were seeded in a 96 well plate and cultured for 24 hours at 37° C. in a 5% CO2 incubator. Next day, the media was aspirated, and the cells were rinsed twice with PBS (pH 7.4) followed by treatment with 1, 5, or 10 μM of the probe solution made in DMSO (final DMSO concentration=0.05%) for 24 hours in the incubator. Next, the media was aspirated and 20 μL of 5 mg/mL 3-(4,5dimethylthiazol-2-yl)-2,5-diphenyltetrazolium bromide (MTT) solution was added to the cells and then incubated for three hours. The MTT solution was then removed and 100 μL DMSO was added to dissolve the violet formazan crystals. The plate was shaken for 5 minutes using an orbital shaker. The absorbance value at 450 nm was recorded and the percent cell metabolic activity was calculated as the ratio of sample absorbance to control absorbance.

[5] = tested on: BV2 microglia; experiment: Cellular uptake of the fluorescent probes; format: in vitro ADME, mouse; details: 2 hour treatment, 10 μM, BV2
Protocol: FIG. 7 describes percent uptake efficiency of the fluorescent probes in BV2 microglia. Cellular uptake of the probe at different concentrations after two hours of incubation. The % uptake efficiency was determined as the percentage of probe taken up by cells out of the total amount of probe in the initial incubation solution. Bars depict n=3 data with SD.
Cellular uptake of the florescent probes was determined in-vitro as following: BV2 cells (20,000 cells/well) were seeded in a 96 well plate and cultured overnight at 37° C. in a 5% CO2 incubator. Next day, the media was removed, and the cells were treated with 1, 5, or 10 μM of the probes for 2 hours. After incubation, the supernatant was collected, and the absorbance was recorded at the respective absorbance maxima of the probe. This was compared with absorbance of the probe in media without cells. The percent cellular uptake was calculated as percentage of […]:
% Uptake Efficiency=1-[Asupernatant×100/Aprobe]

[6] = tested on: BV2 microglia; experiment: LDH cytotoxicity assay on BV2 microglia; format: cell-based, mouse; details: BV2
Protocol: as §1
The cytotoxicity of the fluorescent probes was determined using the Invitrogen™ CyQUANT™ LDH Cytotoxicity Assay kit which measures the release of Lactate dehydrogenase (LDH) from the dead and dying cells. The assay was performed per the manufacturer's protocol. Briefly, BV2 cells (5000 cells/100 μL/well) were seeded in a 96 well plate and cultured for 24 hours at 37° C. in a 5% CO2 incubator. After 24 hours, the media was removed, and the cells were treated with 1, 5, or 10 μM of the probes for 2 or 24 hours of incubation. Three additional wells were treated with the given lysis buffer for 45 minutes (positive control). After the corresponding incubation period, the total LDH release was measured using a fluorescent plate reader. The cells without any probe treatment correspond to spontaneous LDH release and were taken as negative control and the cells treated with the lysis buffer correspond to maximum LDH release. The percentage cytotoxicity of the probes was determined as follows: […]

[7] = Absorption and fluorescence spectra at different pH solutions, pKa; format: physicochemical
Protocol: Spectrum recorded at room temperature in PBS buffer at varying pH with 1% (v/v) of DMSO, in all cases probe concentration=10 μM.
Next, we investigated the absorption and fluorescent properties of LysoShine 1, LysoShine 2, and MitoShine (FIG. 2). The LysoShine 1 in different pH solutions of phosphate buffer (1% DMSO in 1M PBS) has an absorption centered around 500 nm and emission maximum at 505 nm with 480 nm excitation. […] We tested the mitochondrial targeting property of MitoShine (max. absorption 505 nm, max. emission 535 nm, excitation 480 nm). […] We also tested the photophysical property of the important synthetic intermediate compound 10 (absorption maximum 505 nm, max, emission 510 nm at excitation 480 nm).

[8] = tested on: primary mouse microglia; experiment: Confocal imaging, localization of probes in primary microglia; format: cell-based; details: 10 μM probe 2 hours, co-staining LysoTracker / MitoLite / DAPI
Protocol: A detailed protocol for the isolation and culture of primary microglia from adult mouse brains is previously described^2. Briefly, CD11^+ primary microglia were isolated from adult C57BL/6 mice aged 5-7 months of age (both male and female sexes) and cultured as follows. Mice were euthanized with CO2 following the PACUC guidelines, perfused brains were removed and cut into small pieces before homogenizing them in DPBS++with 0.4% DNase-I on the tissue dissociator at 37° C. After filtering the cells through a 70 μm filter, myelin was removed two times, first using gradient centrifugation with Percoll PLUS reagent followed by the use of myelin removal beads on the magnetic column separators. After myelin removal, CD11^+ cells were selected from the single cell suspension using the CD11^+ beads as per the manufacturer's instructions. The CD11^+ cells were finally resuspended in microglia growth media, further diluted in TIC (TGF-β, IL-34, and cholesterol containing) media containing 2% FBS before seeding 0.1×10^6 cells/500 μL/well of a 24-well plate. The cells were maintained at 37° C. and 10% CO2 with half-media change every other day until the day of compound treatment (around 12-14 div). For confocal imaging experiments, around 50,000 cells/2 mL cells were sub-cultured at the center of 35 mm glass-bottom imaging dishes (FluoroDish™ #FD35).
The localization of the fluorescent probes was visualized using confocal microscopy. The cells were incubated with 10 μM probe for 2 hours and then the media was aspirated. The cells were then incubated with 100 nM LysoTracker (1 mM stock from Thermo #L7528) or with 0.5x MitoLite (1000-fold dilution from 500x stock of AAT Bioquest #22678) for 1.5 hours. The media was aspirated, and the cells were fixed with 4% paraformaldehyde for 10 mins followed by nuclear staining with 1 μM/mL DAPI for 5 mins. For BV2 microglia grown on glass coverslips, the coverslips were removed from the wells and transferred to glass slides with a drop of anti-fade reagent (Thermo Fisher Scientific #P36930). […]

**Q.** For CCOC(=O)C1=C(C)C2=C(c3ccc(N(C)C)cc3)c3c(C)c(C(=O)OCC)c(C=Cc4ccc(O)c([N+](=O)[O-])c4)n3[B-](F)(F)[N+]2=C1C [Compound 6b, Diethyl (E)-10-(4-(Dimethylamino)phenyl)-5,5-difluoro-3-(4-hydroxy-3-nitrostyryl)-1,7,9-trimethyl-5H-414,514-dipyrrolo[1,2-c:2′,1′-f][1,3,2]diazaborinine-2,8-dicarboxylate], which “pH at which significant fluorescence is shown” value [1] is on record?
**A.** The value was “less than 6”.

**Q.** And the “solubility in aqueous medium” value ([2]; aqueous medium)?
**A.** The value was “sparingly soluble”.

**Q.** What about the “solubility in DMSO: acetonitrile” value ([2]; mixture of DMSO: acetonitrile) of the same molecule?
**A.** Its value is “soluble”.

**Q.** Which “live cells positive for probe and MitoLite” value [3] does the source give for CCOC(=O)C1=C(C)C2=C(c3ccc(NC(=O)C[P+](c4ccccc4)(c4ccccc4)c4ccccc4)cc3)c3c(C)c(C(=O)OCC)c(C)n3[B-](F)(F)[N+]2=C1C.[Br-] [MitoShine, (2-((4-(2,8-bis(ethoxycarbonyl)-5,5-difluoro-1,3,7,9-tetramethyl-5H-414,514-dipyrrolo[1,2-c:2′, 1′-f][1,3,2]diazaborinin-10-yl)phenyl)amino)-2-oxoethyl)triphenylphosphonium bromide] here?
**A.** Its value is “around 87%”.

**Q.** What about the “solubility upon addition of pH solutions” value ([2]; final DMSO concentration 1%) of the same molecule?
**A.** Its value is “maintains its solubility”.

**Q.** What about the cellular metabolic activity ([4]; 1 μM) of the same molecule?
**A.** The cellular metabolic activity was “high cellular metabolic activity”.

**Q.** What about the cellular metabolic activity ([4]; 5 μM or higher) of the same molecule?
**A.** The cellular metabolic activity was 10%.

**Q.** What about the uptake efficiency [5] of the same molecule?
**A.** The uptake efficiency was 30%.

**Q.** What about the “cytotoxicity (LDH release)” value ([6]; 2 hour, 1 and 5 μM) of the same molecule?
**A.** The value was “no cytotoxicity”.

**Q.** What about the “cytotoxicity (LDH release)” value ([6]; 24 hours, 10 μM and 5 μM) of the same molecule?
**A.** The value was “around 20%”.

**Q.** What about the pKa ([7]; PBS buffer at varying pH, 1% (v/v) DMSO, probe 10 μM, room temperature) of the same molecule?
**A.** Its pKa is 4.4.

**Q.** And the emission maximum ([7]; excitation 480 nm, pH solutions of phosphate buffer, 1% DMSO)?
**A.** The emission maximum was 535 nm.

**Q.** And the “pH at which high fluorescence is shown” value ([7]; pH buffer solutions)?
**A.** Its value is 4.

**Q.** What about the absorption maximum ([7]; pH solutions of phosphate buffer, 1% DMSO) of the same molecule?
**A.** Its absorption maximum is 505 nm.

**Q.** And the “localization of the probe within cell organelles” value [8]?
**A.** The value was “co-localized with MitoLite; also recorded: colocalization of MitoShine in both mitochondrial as well as in lysosomal organelles”.
